The IC50 is the concentration that inhibits the measured activity by half.

The record followed here is patent publication US6875781B2, “Pyridines and uses thereof” (Cell Therapeutics, Inc., priority 2003, dated 2005).

Where only a bound is given, the exact number is not on record here.

The target in this test is T1, LPAAT-β (Homo sapiens, UniProt O15120).
T1 construct: the full-length human LPAAT-β cDNA was amplified by PCR from the DNA template pCE9.LPAAT-β; poly-histidine tag (N); made in house; host or cells: Sf9 insect cells (baculovirus, pFastBac HTc); membrane fraction used
T1 sequence (O15120 24-278): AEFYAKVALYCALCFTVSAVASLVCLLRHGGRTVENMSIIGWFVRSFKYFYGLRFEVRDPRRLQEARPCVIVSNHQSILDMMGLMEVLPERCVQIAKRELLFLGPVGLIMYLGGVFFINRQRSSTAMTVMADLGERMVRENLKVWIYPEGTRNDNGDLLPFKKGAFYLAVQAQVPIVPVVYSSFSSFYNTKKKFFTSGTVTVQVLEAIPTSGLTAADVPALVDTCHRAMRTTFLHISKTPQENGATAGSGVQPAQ
As to the kind of experiment: LPAAT-β cell-free assay. Conditions: Sf9 cell membrane overexpressing recombinant LPAAT-β. The class given is biochemical. An excerpt: For the construction of Baculovirus expression vectors, the full-length human LPAAT-β cDNA was amplified by PCR from the DNA template pCE9.LPAAT-β (West et at., DNA Cell Biol. 16:691-701 (1997)) using the primers 5′-[…] ATGGAGCTGTGGCCGTCTC-3′ (olpb1F; SEQ ID NO:1) and 5′-CAGGCTCTAG ACTACTGGGCCGGCTGCAC-3′ (olpb1R; SEQ ID NO:2). The ˜870 bp fragment generated was reamplified by PCR using the primers 5′[…] TCCGAAGAAGATC-3′ (olpb2F; SEQ ID NO:3) and 5′-CAGGCTCTAGCTACTGGGC CGGCTGCAC-3′ (olpb1R; SEQ ID NO:2). The ˜890 bp fragment generated as then cleaved with Sal I and Xba I for insertion into pFastBac™ HTc vector (Life Technologies, Gaithersberg, Md.) between the Sal I and Xba I sites for the generation of the plasmid pFB.LPAAT-β. This plasmid was then transformed into E. coli DH10Bac™ (Life Technologies, Gaithersberg, Md.) for the generation of recombinant Bacmid DNA for transfection in HighFive (Invitrogen, San Diego, Calif.) or SF9 insect cells for the production of recombinant Baculovirus stocks using the protocol described in the Bac-to-Bac® Baculovirus Expression System (Life Technologies, Gaithersberg, Md.), a eukaryotic expression system for generating recombinant baculovirus through site-specific transposition in E. coli. Viral stocks harvested from the transfected cells can then be used to infect fresh insect cells for the subsequence expression of LPAAT-β fusion protein with a poly-histidine tag and a myc-epitope near its N-terminus. The membrane fraction from these Sf9 cells would be the source of LPAAT enzyme.
For the preparation of membranes from Sf9 Cells, all steps are performed on ice or at 4° C. Sf9 cell pellets (˜10^8 cells) were thawed and resuspended in 1-2 ml of buffer A (20 mM Hepes, pH 7.5, 1 mM DTT, 1 mM EDTA, 20% w/v glycerol, 1 mM Benzamidine, 1 μg/ml soybean trypsin inhibitor (SBTI), 1 μg/ml pepstatin A) w/o DTT but with 1 mM Pefabloc. The cells were lysed by sonication using a Branson Sonifier at output=2, duty cycle=2, 10 pulses each at 10 s. with the tip of small sonicator probe submerged but not touching the walls. DTT was then added to 1 mM from a 1 M stock. The samples were centrifuged at 1500 rpm for 5 min. The low speed supernatant was saved and centrifuged (TLA 100.3 rotor, polycarbonate tubes, 2 ml/tube or 1.5 ml/tube minimum) at 100000×g for 1 hr. The high speed pellet was resuspend in Buffer A with a probe sonicator (10 pulses @ output #2 and duty cycle 20%) as a source of LPAAT enzyme.
LPAAT-β catalyzes the transfer of an acyl group from a donor such as acyl-CoA to LPA. The transfer of the acyl group from acyl-CoA to LPA leads to the release of free CoA, which can be reacted with the thiol reagent, 5,5′-dithiobis(2-nitrobenzoic acid) (DTNB). The reaction between DTNB and the free sulfhydryl group from CoA generates a yellow-colored product, 3-carboxylato-4-nitrothiophenolate (CNP), that absorbs at 413 nm. LPAAT-β derived from Sf9 cell membrane overexpressing LPAAT-β were resuspended in HEPES saline buffer (20 mM HEPES pH 7.5, 150 mM NaCl), 1 mg/ml BSA and 72 μl aliquots were distributed into 96-well microtiter plates. 8 μl of compound of interest at 200 μM dissolved in 100% DMSO was added into each well. 20 μl of 1 mM 18:1-CoA and 1 mM sn-1-18:1 lysoPA was then added to each well to initiate the reaction and allowed to run at room temperature for 25 min. 100 μl of 1 mM DTNB in 100% ethanol was then added to each well to quench the reaction and for color development. The absorbance at 405 nm, measured using a spectrophotometer plate reader, is proportional to the activity of LPAAT-β in the sample. This colorimetric assay was used for the high throughput screening of LPAAT inhibitors.
The radiometric assay was carried out in Sf9 cell membrane overexpressing LPAAT-β resuspended in HEPES-saline buffer, pH 7.5, 1 mg/ml BSA, 1 mM EDTA and 200 μM [^14C]18:1-CoA and 200 μM sn-1-18:1 lysoPA. […]
In the case of `COc1ccc(Cl)cc1-c1cc(N)cc(Nc2ccc(Cl)cc2)n1` [Example 4, 6-(5-Chloro-2-methoxy-phenyl)-N*2*-(4-chloro-phenyl)-pyridine-2,4-diamine], the IC50 came to 6500 nM.

Consider `CCOc1ccc(Cl)cc1-c1cc(N)nc(Nc2ccc(CO)cc2)c1` [Example 13, {4-[6-Amino-4-(5-chloro-2-ethoxy-phenyl)-pyridin-2-ylamino]-phenyl}-methanol], for which the IC50 is 100 nM.

In the case of `COc1ccc(Cl)cc1-c1cc(Cl)cc(Nc2ccc(C)cc2)n1` [Example 2, [4-Cloro-6-(5-chloro-2-methoxy-phenyl)-pyridin-2-yl]-p-tolyl-amine], the IC50 is greater than 40000 nM.

Consider `COc1ccc(Cl)cc1-c1cc(Nc2ccc(C)cc2)cc(N)n1` [Example 6, 6-(5-Chloro-2-methoxy-phenyl)-N*4*-p-tolyl-pyridine-2,4-diamine], for which the IC50 came to 35000 nM.

Regarding `COc1ccc(Cl)cc1-c1cc(N)nc(Nc2ccc(Cl)cc2)c1` [Example 8, 4-(5-Chloro-2-methoxy-phenyl)-N-(4-chloro-phenyl)-pyridine-2,6-diamine], the IC50 was determined as 40 nM.

As for `COc1ccc(Cl)cc1-c1cc(N)cc(Nc2ccc(C)cc2)n1` [Example 3, 6-(5-Chloro-2-methoxy-phenyl)-N*2*-p-tolyl-pyridine-2,4-diamine], the IC50 is 29000 nM.

Regarding `CCOc1ccc(Cl)cc1-c1cc(N)nc(Nc2ccc(Cl)cc2)c1` [Example 11, 4-(5-Chloro-2-ethoxy-phenyl)-N-(4-chloro-phenyl)-pyridine-2,6-diamine], the IC50 stood at 50 nM.

With `COc1ccc(Cl)cc1-c1cc(N)nc(Nc2ccc(C=O)cc2)c1` [Example 14, 4-[6-Amino-4-(5-chloro-2-methoxy-phenyl)-pyridin-2-ylamino]-benzaldehyde], the IC50 stood at 260 nM.

For `CCOc1ccc(Cl)cc1-c1cc(N)nc(Nc2ccc(C=O)cc2)c1` [Example 12, 4-[6-Amino-4-(5-chloro-2-ethoxy-phenyl)-pyridin-2-ylamino]-benzaldehyde], the IC50 was 50 nM.

For `COc1ccc(Cl)cc1-c1cc(Nc2ccc(C)cc2)cc(NC(C)=O)n1` [Example 5, N-[6-(5-chloro-2-methoxy-phenyl)-4-p-tolylamino-pyridin-2-yl]-acetamide], the IC50 turned out to be 34000 nM.

Take `CCOc1ccc(Cl)cc1-c1cc(N)nc(Nc2ccc(C)cc2)c1` [Example 10]: the 50% inhibitory concentration (IC50) amounted to 490 nM.

In the case of `COc1ccc(Cl)cc1-c1cc(Nc2ccc(C)cc2)cc(Cl)n1` [Example 1, [2-Chloro-6-(5-chloro-2-methoxy-phenyl)-pyridin-4-yl]-p-tolyl-amine], the IC50 came out at 200 nM.

Take `COc1ccc(Cl)cc1-c1cc(Nc2ccc(Cl)cc2)cc(N)n1` [Example 7, 6-(5-Chloro-2-methoxy-phenyl)-N*4*-(4-chloro-phenyl)-pyridine-2,4-diamine]: the concentration for half-maximal inhibition (IC50) was found to be 18000 nM.

Regarding `COc1ccc(Cl)cc1-c1cc(N)nc(Nc2ccc(C)cc2)c1` [Example 9], the IC50 was 240 nM.
